According to paper PMC9785542, “Discovery of 1-Benzhydryl-Piperazine-Based HDAC Inhibitors with Anti-Breast Cancer Activity: Synthesis, Molecular Modeling, In Vitro and In Vivo Biological Evaluation” (Pharmaceutics, 2022):

Columns and labels:
MCF-7 cells = assay: Wound healing assay; assay type: cell-based; details: Homo sapiens, MCF7, 24 h, read-out: inhibition of wound closure compared to control
Method: To determine MCF-7 cell migration properties, 1 × 10^5 cells were seeded in 24-well plates and cultured until confluent. Then, cell monolayers were scratched using a sterile 200 μL pipette tip, and cell cultures were allowed to grow for 24 h under the indicated treatments. At the end of incubation period, culture medium was removed and wells were washed twice with PBS, then, cells were fixed with ice-cold methanol and stained with 0.1% crystal violet. In addition, cell monolayers were fixed and stained just after scratching to represent zero time migration. Finally, cell migration into the scratch area was documented by inverted light microscopy and quantified using NIH ImageJ software.

MDA-MB-231 cells = assay: Bicameral (transwell) migration assay; assay type: cell-based, human; details: 24 h; 5 μM 8b, 10 μM 9b
Method: To determine MDA-MB-231 cell migration and invasion cell capacities, Corning® Costar® Transwell® cell culture inserts with 8.0 μm pore polycarbonate filters (Sigma Aldrich, CLS3464) and Corning™ BioCoat™ Matrigel™ Invasion Chamber with Corning Matrigel Matrix™ cell culture inserts (Thermo fisher scientific, Waltham, MA, USA) respectively were used. Briefly, 6 × 10^4 cells in 200 μL were seeded in the upper chamber and the bottom chamber was filled with 800 μL of medium. After 24 h under indicated treatments, the remaining cells in the upper chamber were gently removed with a cotton swab, moistened with medium, and the inserts were carefully washed twice with 37 °C warmed PBS. Then, attached cells at the bottom side of the membrane were fixed by immersing in ice cold methanol for 2 min and stained with 0.1% crystal violet for 15 min at room temperature. Stained cells were photographed and quantified using NIH ImageJ software.

[1] = system: zebrafish (Danio rerio) embryos; assay: Acute and developmental toxicity in zebrafish embryos; assay type: in vivo; details: 50 µM
Method: (§1) Embryos of wild type (AB) and transgenic Tg(fli1:EGFP) and Tg(-2.8fabp10a:EGFP) zebrafish (Danio rerio) lines were kindly provided by Dr. Ana Cvejić (Wellcome Trust Sanger Institute, Cambridge, UK) and raised to adult stage in a temperature- and light-controlled zebrafish facility at 28 °C and standard 14–10 h light–dark photoperiod. Adult fish were regularly fed with commercial dry food (SDS300 granular food; Special Diet Services, Essex, UK; and TetraMinTM flakes, Tetra, Melle, Germany) twice per day and Artemia nauplii daily. All experiments involving zebrafish were performed in compliance with the European directive 2010/63/EU and the ethical guidelines of the Guide for Care and Use of Laboratory Animals of the Institute of Molecular Genetics and Genetic Engineering, University of Belgrade.
(§2) Toxicity evaluation of the tested compounds in the zebrafish model was carried out following the general rules of the OECD Guidelines for the Testing of Chemicals (OECD, 2013, Test No. 236), and procedures described in the literature. Briefly, wild type (AB) zebrafish produced by pair-wise mating were collected, washed of debris, and distributed into 24-well plates containing 10 embryos/well and 1 mL of E3 medium (5 mM NaCl, 0.17 mM KCl, 0.33 mM CaCl2, and 0.33 mM MgSO4·7H2O in distilled water), and raised at 28 °C.
(§3) To assess acute (lethality), inner organ, and developmental (teratogenicity) toxicity, the embryos at the 6 h post-fertilization (hpf) stage were treated with six different concentrations of each tested compound (100, 50, 25, 12.5, 6.25, and 3.13 µM). Stock solutions of test substances were made in DMSO. Embryo water and DMSO (0.25%) were used as negative and […] controls, respectively. The experiment was performed three times using 20 embryos per concentration. Treated embryos were inspected for 22 toxicological parameters (Table S2) every day by 120 hpf upon a stereomicroscope (Carl Zeiss™ Stemi 508 doc Stereomicroscope, Jena, Germany). Dead embryos were discarded every 24 h. At 120 hpf, embryos were anesthetized by addition of 0.1% (w/v) tricaine solution (Sigma-Aldrich, St. Louis, MO, USA), photographed, and killed by freezing at −20 °C for ≥24 h.

[2] = as above; assay type: in vivo, Danio rerio; details: wild type (AB), zebrafish (Danio rerio), in vivo, other: exposure of embryos in E3 medium, evaluated at 120 hpf; for LC50: embryos treated at 6 hpf; for EC50: teratogenicity, cardiotoxicity, hepatotoxicity, treated at 6 hpf
Method: as §1, §2, §3

[3] = system: MDA-MB-231 xenografts in Tg(fli1:EGFP) zebrafish embryos; assay: Zebrafish MDA-MB-231 xenograft model; assay type: in vivo; details: for reduction of tumor mass vs untreated control: 3 days post injection
Method: The human breast carcinoma MDA-MB 231 cell line was cultured in DMEM:Ham’s 12 (1:1) medium (Sigma-Aldrich, St. Louis, MO, USA) supplemented with 10% FBS (Sigma-Aldrich, St. Louis, MO, USA), 100 µg/mL streptomycin, and 100 U/mL penicillin (Sigma-Aldrich, St. Louis, MO, USA), and grown as a monolayer in humidified atmosphere of 95% air and 5% CO2 at 37 °C. Prior to microinjection, the cells were washed once with PBS and trypsinized (0.25% trypsin/0.53 mM EDTA) (Sigma-Aldrich, St. Louis, MO, USA) to obtain a single-cell suspension. After centrifugation at 1200 rpm for 5 min, the cells were resuspended in serum-free DMEM medium and labeled with 2 µM Cell Tracker TM Red CMTPX (Thermo Fisher Scientific) according to the manufacturer’s instructions.
The zebrafish xenografts with human MDA-MB-231 cells were established according to the previously described procedure with slight modification. A day before the microinjections, Tg(fli1:EGFP) embryos kept at 28 °C were manually dechorionated. At the 48 hpf stage, 5 nL of MDA-MB 231 cell suspension containing 150 labeled cells was microinjected into the yolk of anesthetized embryos by a pneumatic picopump (PV820, World Precision Instruments, Sarasota, FL, USA). The exact number of cells was confirmed by dispensing the injected volume onto a microscope slide and by visual counting. After injection, embryos were incubated, to recover, for at least for 60 min at 28 °C, dead embryos were removed, while alive embryos were transferred into 24-well plates containing 1 mL of E3 water and 10 embryos per well. The injected xenografts were treated with the three doses of 8b (3.13, 6.25, and 12.5 µM), and maintained at 31–32 °C by 120 hpf. DMSO (0.25%) was used as a negative control. The survival and development of the xenografted embryos was recorded every day until the end of experiment (3 days post injection = 3 dpi), at which point, anesthetized xenografts were processed by fluorescent microscopy. The tumor size, number of xenografts with disseminated tumor cells in the caudal region, and number of disseminated cells per embryo were determined. The tumor size was determined by the fluorescent images using ImageJ. The experiment was repeated two times using 10 embryos per concentration.

Structure (SMILES)	inhibition at 10 µM (MCF-7 cells)	anti-migratory property (% compared to control) (MDA-MB-231 cells)	embryos with teratogenicity, cardio- or hepatotoxicity [1]	LC50 [2]	EC50 [2]	number of metastasis per embryo, fold lower than untreated ([3]; 3.13 µM, 3-day treatment)	reduction of number of embryos exhibiting metastases ([3]; 3.13 µM, 3-day treatment)	reduction of tumor mass vs untreated control ([3]; 3.13 µM)	dissemination of MDA-MB-231 cells ([3]; 12.5 µM)	reduction of tumor mass vs untreated control ([3]; 12.5 µM)	ED50 (effective drug concentration reducing tumor mass by 50% in relation to the control) ([3]; 3-day treatment)	toxic side effects in xenografts ([3]; 3.13, 6.25 and 12.5 µM, 3-day treatment)
O=C(NO)c1ccc(CN2CCN(C(c3ccccc3)c3ccccc3)CC2)cc1 [Compound 9b, 4-(4-(diphenylmethyl)-piperazin-1-ylmethyl)-N-hydroxy-benzamide]	63.9%	did not reduce	32%	> 100 µM	53.8 µM							
O=C(CCCCCCCN1CCN(C(c2ccccc2)c2ccccc2)CC1)NO [Compound 8b, 8-(4-(diphenylmethyl)-piperazin-1-yl)-N-hydroxyoctanamide]			none	> 100 µM	79.5 µM	up to 9.6 fold	50%	56.1 ± 5.2%	completely inhibited	almost complete reduction	2.67 µM	no toxic side effects were observed
